Test results: US20060263805A1, “Diagnosing and treating potassium channel defects” (priority 2005, published 2006)
One block for each molecule: values may come before it.

Tests used:
[1] = molecular target: wild-type SUR2A NBD2; experiment: NBD2 ATPase activity by spectrophotometry, wild-type; format: biochemical
Description: (§1) Cloning of KATP channel subunits and purification of SUR2A ATPase. cDNAs encoding SUR2A and Kir6.2 were subcloned into the expression vector pcDNA3.1. PCR-based site-directed mutagenesis was carried out using primers incorporating identified mutations (QuickChange, Stratagene). The constructs were sequenced to verify mutations and rule out additional changes in sequence. […]
(§2) Enzymology and nucleotide binding. ATPase activity of purified NBD2 was measured in the presence of Mg^2+, as Pi generation detected spectrophotometrically at 360 nm with the EnzChek Phosphate Assay Kit or by monitoring conversion of [γ-^32P]ATP using thin layer chromatography and quantified it with Phosphorlmager and ImageQuant software (Molecular Dynamics) (Zingman et al., 2002, supra). […] Binding of fluorescent ATP analog TNP-ATP to purified NBD2 constructs was determined by fluorescence spectrophotometry (QuantaMaster, PTI) at excitation and emission wavelengths of 410 nm and 540 nm, respectively. […]
(§3) The ADP dissociation constant, KADP, was determined from spectrometric measurement of steady-state NBD2 ATPase activity at [ADP]=O with variable [ATP]. […]

[2] = molecular target: A1513T SUR2A NBD2; experiment: NBD2 ATPase activity by spectrophotometry, A1513T mutant; format: biochemical
Description: as §1, §2, §3

[3] = molecular target: Fs1524 SUR2A NBD2; experiment: NBD2 ATPase activity by spectrophotometry, Fs1524 mutant; format: biochemical
Description: as §1, §2, §3

[4] = tested on: hypertensive wild-type mice; experiment: Dobutamine challenge, left ventricular catheterization, hypertensive wild-type; format: in vivo; settings: dobutamine 15 mg/kg i.p.
Description: Left Ventricular Catheterization. Invasive left ventricular pressure recordings were measured in vivo by a 1.4-Fr micropressure catheter (SPR-671, Millar Instruments) following carotid arterial cannulation and advancement across the aortic valve under 2,2,2 tri-bromoethanol ([…] i.p.; Sigma) anesthesia, before and after dobutamine (15 mg/kg i.p.) challenge. Left ventricular developed pressure was defined as the absolute difference between the maximum and minimum left ventricular pressure (mm Hg) and the relaxation time as the time from maximal rate of pressure decay to minimum left ventricular pressure (ms).

[5] = tested on: patient with atrial fibrillation; format: in vivo, human; settings: for response of atrial fibrillation to antiarrhythmic medical therapy: patient
[6] = tested on: wild-type hearts; experiment: Coronary flow in isolated perfused wild-type hearts; parameters: species or system mice
[7] = tested on: wild-type mice; experiment: Telemetric rhythm monitoring under isoproterenol challenge, wild-type mice; format: in vivo; settings: isoproterenol 10 mg/kg injection
Source text: (§4) KATP channel knockout mice were backcrossed for 5 generations to a C57BL/6 background. With approval of the Mayo Foundation Institutional Animal Care and Use Committee, the heart rate and electrocardiogram were continuously monitored in the conscious state. To this end, KATP channel knockout or 8- to 12-week old, age- and sex-matched C57BL/6 wild-type mice were implanted with telemetry devices (Data Sciences International) and leads tunneled subcutaneously under isoflurane anesthesia. Following a 2-week recovery from surgery, serial signals were acquired at 2 kHz before and during isoproterenol challenge.

[8] = tested on: Kir6.2 knockout mice; experiment: Telemetric rhythm monitoring under isoproterenol challenge, KATP channel knockout mice; format: in vivo; settings: isoproterenol 10 mg/kg injection; within 20 min
Source text: as §4

[9] = tested on: Kir6.2-KO hearts; experiment: Monophasic action potentials in Langendorff-perfused Kir6.2-KO hearts under isoproterenol; parameters: species or system mice
Source text: Kir6.2-knockout mice. Mice deficient in KATP channels were generated by targeted disruption of the KCNJ11 gene, which encodes the pore-forming Kir6.2 subunit of the channel complex (Miki et al., 1998, supra). Kir6.2-knockout mice were backcrossed for five generations into a C57BL/6 background. This investigation was approved by the Mayo Clinic Institutional Animal Care and Use Committee.
(§5) In situ aortic cannulation and Langendorff perfusion. Mice were anesthetized with intraperitoneal injection of 2,2,2 tri-bromoethanol (0.375 mg/g body weight; Sigma), intubated, ventilated, and the aortic root cannulated in situ (Hodgson et al., 2003, supra). Perfusion was sustained ex vivo on a Langendorff system at 90 cm H2O, with 37° C.-prewarmed and 100% O2-bubbled Tyrode solution (in mM: NaCl 137, KCl 5.4, CaCl2 2, MgCl2 1, HEPES 10, glucose 10; pH 7.4 with NaOH). Following 10-min equilibration, KCl was reduced to 2.7 mM and MgCl2 to 0.35 mM, with the atrioventricular node cauterized to allow ventricular pacing. Coronary flow was monitored with a T106 blood flow meter (Transonic Systems).
(§6) Electrogram and monophasic action potential recordings. Orthogonal electrogram signals were simultaneously recorded using four silver-silver chloride electrodes surrounding the perfused heart in a simulated “Einthoven” configuration, and signals amplified by an electrocardiographic amplifier (Gould Electronics). A catheter (NuMed) was placed in the left ventricular endocardium to pace the heart at twice diastolic threshold intensity with 2 ms pulse width and 100 ms cycle length using a pulse generator (A310 Accupulser, World Precision Instruments). Monophasic action potentials were continuously recorded from the left ventricle by a probe (EP Technologies) positioned on the epicardial surface, and amplified signals (IsoDam, World Precision Instruments) acquired at 11.8 kHz and stored for off-line digital analysis.

[10] = tested on: wild-type hearts; experiment: Monophasic action potentials in Langendorff-perfused wild-type hearts under isoproterenol; parameters: species or system mice
Description: as §5, §6

[11] = tested on: Kir6.1-KO mice; settings: mouse, in vivo, sc
Source text: Kir6.1-deficient Mice. Mice deficient in vascular KATP channels (Kir6.1-KO), while maintaining normal KATP channel current in non-vascular tissues including the myocardium, were generated by targeted disruption of the KCNJ8 gene encoding the pore-forming Kir6.1 subunit and backcrossed for more than 5 generations to a C57BL/6 background (Miki et al., 2002, Nat. Med., 8:466-72). Six to eight week-old Kir6.1-KO mice were compared to age and sex matched wild-type littermate controls or to mice lacking non-vascular, including myocardial, KATP channels generated by targeted disruption of the KCNJ11 gene that encodes the Kir6.2 channel pore (Zingman et al., 2002, PNAS USA, 99:13278-83; Suzuki et al., 2001, Circ. Res., 88:570-7). […] Comparisons between groups were performed by analysis of variance, Student's t-tests, non-parametric or log-rank tests, using JMP software (SAS). Data are presented as mean±SEM; n refers to the sample size. P<0.05 was predetermined. All chemicals were obtained from Sigma. The Mayo Foundation Institutional Animal Care and Use Committee approved all experimental protocols.
Endotoxic Shock. The shock state of severe sepsis was modeled by administration of Escherichia coli LPS serotype 0111:B4 (Natanson et al., 1989, J. Exp. Med., 169:823-32; Suffredini et al., 1989, N. Engl. J. Med., 321:280-7). […]

[12] = tested on: hypertensive Kir6.2-KO mice; settings: verapamil 250 μg orally daily
Source text: KATP Channel Knockout and Experimental Hypertension. KATP channel-deficient mice (Kir6.2-KO) were generated by targeted disruption of the KCNJ11 gene (Miki et al., 1998, PNAS USA, 95:10402-6) which encodes the pore-forming Kir6.2 channel subunit of myocardial but not renal or vascular KATP channels, and backcrossed for 5 generations to a C57BL/6 background. With approval of the Mayo Foundation Institutional Animal Care and Use Committee, Kir6.2-KO or 8- to 12-week old, age-matched, C57BL/6 male wild-type mice had left nephrectomy through a retroperitoneal flank excision under isoflurane-anesthesia to reduce clearance and mineralocorticoid-hypertension was induced for 21 days by subcutaneous implantation of a 50 mg 21-day-release deoxycorticosterone-acetate pellet (Innovative Research of America) and drinking water supplementation with 1% NaCl/0.2% KCl. Control wild-type or Kir6.2-KO mice underwent nephrectomy alone. Water or salt water intake was measured weekly. […] Following one-week of acclimatization, blood pressure was measured by automated tail-cuff recording (Columbus Instruments) in awake restrained wild-type and Kir6.2-KO mice, 2 weeks post-nephrectomy with or without mineralocorticoid/salt loading. Systolic blood pressure was digitally derived from ten sequential recordings.
Gross Pathology and Tissue Fibrosis. At 21 days, whole heart, left ventricle including septum, kidney and lungs were removed, rinsed, blotted dry, and weighed ex vivo. Lung samples were dried at 65° C. for 48 h and reweighed with pulmonary congestion assessed by comparing wet to dry lung weight ratios. Interstitial fibrosis was quantified by computer analysis (MetaMorph, Visitron Universal Imaging) of 0.5-μm thick, paraffin-embedded, Masson's trichrome-stained sections. Kidney or left ventricular collagen content was determined by assaying hydroxyproline content after overnight hydrolysis by 12 N HCl with samples run in duplicate against standard hydroxyproline (Sigma). All quantification was performed blinded to the sample origin.
Isolated Cardiomyocytes, Immunohistochemistry and Calcium Imaging. […]

[13] = tested on: Kir6.1-KO hearts; experiment: Coronary flow in isolated perfused Kir6.1-KO hearts; parameters: species or system mice
Description: Coronary Flow. The aorta was cannulated in situ. […] Coronary flow was continuously measured with a T106 small animal blood flow meter (Transonic Systems Incorporated). The effect of recombinant murine TNFα was assessed at least 20 min after flow stabilization. […] Maximum vasodilation was defined as the peak increase in coronary flow observed in the wild-type in response to 10 μl of 1 mM adenosine after at least 10 min of return to baseline flow on TNFα washout.

[14] = tested on: hypertensive wild-type mice; experiment: Mineralocorticoid/salt hypertension with pharmacologic intervention, wild-type mice; format: in vivo; settings: verapamil 250 μg orally daily
Description: KATP Channel Knockout and Experimental Hypertension. KATP channel-deficient mice (Kir6.2-KO) were generated by targeted disruption of the KCNJ11 gene (Miki et al., 1998, PNAS USA, 95:10402-6) which encodes the pore-forming Kir6.2 channel subunit of myocardial but not renal or vascular KATP channels, and backcrossed for 5 generations to a C57BL/6 background. […] Water or salt water intake was measured weekly. All mice were given standard rodent chow, had similar awake non-fasting blood glucose levels measured by tail sampling (Table 2; OneTouch Ultra, Lifescan), were housed individually with a 12 h day/night cycle, and were observed daily until termination of the study at day 21. Following one-week of acclimatization, blood pressure was measured by automated tail-cuff recording (Columbus Instruments) in awake restrained wild-type and Kir6.2-KO mice, 2 weeks post-nephrectomy with or without mineralocorticoid/salt loading. […]
Gross Pathology and Tissue Fibrosis. […] Lung samples were dried at 65° C. for 48 h and reweighed with pulmonary congestion assessed by comparing wet to dry lung weight ratios. Interstitial fibrosis was quantified by computer analysis (MetaMorph, Visitron Universal Imaging) of 0.5-μm thick, paraffin-embedded, Masson's trichrome-stained sections. […] All quantification was performed blinded to the sample origin. […]

[15] = tested on: wild-type and mutated SUR2A NBD2; experiment: TNP-ATP binding to purified NBD2 constructs (fluorescence, Scatchard); settings: Scatchard analysis
Description: Enzymology and nucleotide binding. ATPase activity of purified NBD2 was measured in the presence of Mg^2+, as Pi generation detected spectrophotometrically at 360 nm with the EnzChek Phosphate Assay Kit or by monitoring conversion of [γ-^32P]ATP using thin layer chromatography and quantified it with Phosphorlmager and ImageQuant software (Molecular Dynamics) (Zingman et al., 2002, supra). The initial kinetics of ATP hydrolysis was captured by stopped-flow spectroscopy with instantaneous mixing of purified polypeptide and substrate on an SX. 18MV spectrometer (Applied Photophysics). Binding of fluorescent ATP analog TNP-ATP to purified NBD2 constructs was determined by fluorescence spectrophotometry (QuantaMaster, PTI) at excitation and emission wavelengths of 410 nm and 540 nm, respectively.

[16] = ADP-dependent inhibition at 2 mM ATP, read-out: ADP-dissociation constant (KADP)
[17] = 0 ADP, creatine kinase 0.01 U/ml, creatine phosphate 5 mM

Molecule: Nc1ncnc2c1ncn2[C@@H]1O[C@H](COP(=O)(O)OP(=O)(O)O)[C@@H](O)[C@H]1O [ADP]
Kd [1, 16]: 8.6 ± 0.3 µM | Kd [2, 16]: 24.9 ± 5.6 µM | Kd [3, 16]: 11 ± 1.5 µM

Molecule: Nc1ncnc2c1ncn2[C@@H]1O[C@H](COP(=O)(O)OP(=O)(O)OP(=O)(O)O)[C@@H](O)[C@H]1O [ATP]
Michaelis-Menten constant of NBD2 ATPase (ATP dependence) [1, 17]: 0.11 ± 0.02 mM | Michaelis-Menten constant of NBD2 ATPase (ATP dependence) [2, 17]: 0.094 ± 0.013 mM | Michaelis-Menten constant of NBD2 ATPase (ATP dependence) [3, 17]: 0.084 ± 0.010 mM

Molecule: CC(CCc1ccc(O)cc1)NCCc1ccc(O)c(O)c1 (stereo not drawn) [dobutamine]
response to inotropic challenge [4]: normal contractile response to the same stress challenge with no death

Molecule: O=C(NCC1CCCCN1)c1cc(OCC(F)(F)F)ccc1OCC(F)(F)F (stereo not drawn) [flecainide]
response of atrial fibrillation to antiarrhythmic medical therapy [5]: refractory and/or intolerant

Molecule: COc1ccc(Cl)cc1C(=O)NCCc1ccc(S(=O)(=O)NC(=O)NC2CCCCC2)cc1 [glyburide]
TNFα-induced increase in coronary flow after glyburide pre-treatment ([6]; 10 min perfusion of 10 μM glyburide before TNFα): not observed

Molecule: CC(C)NCC(O)c1ccc(O)c(O)c1 (stereo not drawn) [isoproterenol]
cardiac rhythm after isoproterenol [7]: maintained normal sinus rhythm | knockouts with atrial fibrillation [8]: 70% | atrial fibrillation under isoproterenol infusion ([5]; patient with ABCC9 mutation, before ablation): provoked | hearts with isoproterenol-induced afterdepolarizations complicated by triggered activity ([9]; Kir6.2-KO hearts, 6 out of 8): 75% | monophasic action potential duration at 90% repolarization (APD90) after isoproterenol ([9]; Kir6.2-KO hearts, 10-min perfusion, isoproterenol 1 mM, before 79±3): 80 ± 3 ms | early afterdepolarizations, share of action potentials examined ([9]; Kir6.2-KO hearts, isoproterenol challenge): 97±2% | fold higher risk of premature ventricular complexes, Kir6.2-KO versus wild-type ([9]; isoproterenol challenge): 16 fold | hearts with isoproterenol-induced afterdepolarizations complicated by triggered activity ([10]; 1 out of 6): 16% | monophasic action potential duration at 90% repolarization (APD90) after isoproterenol ([10]; 10-min perfusion, isoproterenol 1 mM, before 82±2): 74 ± 2 ms | early afterdepolarizations, share of action potentials examined ([10]; isoproterenol challenge): 1±1%

complication of drug use ([5]; human, in vivo): symptomatic bradycardia
Molecule: CC(C)NCC(O)c1ccc(NS(C)(=O)=O)cc1 (stereo not drawn) [sotalol]
response of atrial fibrillation to antiarrhythmic medical therapy [5]: refractory and/or intolerant

Molecule: COc1ccc(CCN(C)CCCC(C#N)(c2ccc(OC)c(OC)c2)C(C)C)cc1OC (stereo not drawn) [verapamil]
median survival time [11]: 24 h | mortality ([12]; hypertensive Kir6.2-KO): prevention of all mortality | syndrome of heart failure including lung congestion ([12]; hypertensive Kir6.2-KO): averted | degree of systemic hypertension [12]: did not affect | coronary vasodilation in TNFα-challenged hearts ([13]; 1 μM verapamil after TNFα): reinstated coronary vasodilation | left ventricular hypertrophy [14]: not affected

Molecule: TNFα
TNFα-induced increase in coronary flow ([13]; 4, 8 or 20 μg/l TNFα): not observed | coronary vasodilation (coronary flow) under TNFα ([6]; recombinant TNFα 4 μg/l): induced maximal coronary vasodilation

Molecule: TNP-ATP
binding affinity of TNP-ATP, wild-type versus mutated NBD2 [15]: similar
